In ChEMBL document CHEMBL1201862, “PubChem BioAssay data set” (2004):
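48-hour exposure; five concentrations; linearly interpolated endpoints. The concentration for 50% growth inhibition is given as GI50.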 Active and inactive are the calls of the source. Cut-off read from the data, not from the text of the source: active = GI50 up to about 1.1 µM and inactive = higher.

Tests used:
Assay in all cases: NCI-60 cell line screen, 48 h
786-0 = system: 786-0
A498 = system: A498
CAKI-1 = system: CAKI-1
EKVX = system: EKVX
HT-29 = system: HT-29
KM12 = system: KM12
M14 = system: M14
MCF7 = system: MCF7
MDA-MB-231 = system: MDA-MB-231
MOLT-4 = system: MOLT-4
NCI-H226 = system: NCI-H226
NCI-H23 = system: NCI-H23
OVCAR-4 = system: OVCAR-4
OVCAR-8 = system: OVCAR-8
SF-268 = system: SF-268
SK-MEL-2 = system: SK-MEL-2
TK-10 = system: TK-10
U-251 = system: U-251
HOP-92 = system: HOP-92

SMILES | GI50 (786-0) | GI50 (A498) | GI50 (CAKI-1) | GI50 (EKVX) | GI50 (HT-29) | GI50 (KM12) | GI50 (M14) | GI50 (MCF7) | GI50 (MDA-MB-231) | GI50 (MOLT-4) | GI50 (NCI-H226) | GI50 (NCI-H23) | GI50 (OVCAR-4) | GI50 (OVCAR-8) | GI50 (SF-268) | GI50 (SK-MEL-2) | GI50 (TK-10) | GI50 (U-251) | GI50 (HOP-92)
CC(C)/C(Cl)=N\OC(=O)Nc1cccc(Cl)c1 | 15.7 µM (inactive) | 17.4 µM (inactive) | 17.7 µM (inactive) | 16.3 µM (inactive) | 15 µM (inactive) | 16.5 µM (inactive) | 0.305 µM (active) | 15.8 µM (inactive) | 15.2 µM (inactive) | 2.65 µM (inactive) | 20.8 µM (inactive) | 15.2 µM (inactive) | 13.3 µM (inactive) | 15.4 µM (inactive) | 18.5 µM (inactive) | 15.5 µM (inactive) | 15.3 µM (inactive) | 18.4 µM (inactive) | 
COc1cc([C@@H]2c3cc4c(cc3[C@@H](NCc3cccc(C#N)c3)C3COC(=O)[C@@H]32)OCO4)cc(OC)c1O (stereo partly specified) | 1.02 µM (active) | 1.43 µM (inactive) | 1 µM (active) | 2.39 µM (inactive) | 1.48 µM (inactive) | 1.62 µM (inactive) | 1.64 µM (inactive) |  |  | 0.0386 µM (active) | 0.225 µM (active) | 0.428 µM (active) | 68.7 µM (inactive) | 1.43 µM (inactive) | 2.22 µM (inactive) | 3.77 µM (inactive) | 2.39 µM (inactive) | 0.303 µM (active) | 1.32 µM (inactive)
Cc1cc(=O)n(-c2c(C)cccc2Cl)c(/C=C(\O)c2ccncc2)n1 | > 100 µM (inactive) | > 100 µM (inactive) | > 100 µM (inactive) | > 100 µM (inactive) | > 100 µM (inactive) | 48.5 µM (inactive) | > 100 µM (inactive) |  |  | > 100 µM (inactive) | > 100 µM (inactive) | > 100 µM (inactive) | > 100 µM (inactive) | > 100 µM (inactive) | > 100 µM (inactive) | > 100 µM (inactive) | > 100 µM (inactive) | > 100 µM (inactive) | 62.1 µM (inactive)
CC1=C(NC(=O)C(=O)NNC(=O)c2ccncc2)C(=O)c2ccccc2C1=O | 18.2 µM (inactive) | 23.8 µM (inactive) | 22.8 µM (inactive) | 13.5 µM (inactive) | 15.5 µM (inactive) | 15.3 µM (inactive) | 9.84 µM (inactive) |  |  | 20.8 µM (inactive) | 14.2 µM (inactive) | 6.32 µM (inactive) | 13.8 µM (inactive) | 18.4 µM (inactive) | 23.6 µM (inactive) | 2.3 µM (inactive) | 45.2 µM (inactive) | 9.04 µM (inactive) | 15.5 µM (inactive)
CCCCOC(=O)/C(CC(=O)C=C(C)C)=N\NS(=O)(=O)c1ccc(C)cc1 | > 100 µM (inactive) | > 100 µM (inactive) | > 100 µM (inactive) | > 100 µM (inactive) | > 100 µM (inactive) | > 100 µM (inactive) | > 100 µM (inactive) |  |  | > 100 µM (inactive) | > 100 µM (inactive) | > 100 µM (inactive) | > 100 µM (inactive) | > 100 µM (inactive) | > 100 µM (inactive) | > 100 µM (inactive) | > 100 µM (inactive) | > 100 µM (inactive) | > 100 µM (inactive)
O=C1Cc2ccccc2N1/N=C\c1ccc([N+](=O)[O-])cc1 | > 100 µM (inactive) | > 100 µM (inactive) | > 100 µM (inactive) | > 100 µM (inactive) | > 100 µM (inactive) | > 100 µM (inactive) | > 100 µM (inactive) |  |  | > 100 µM (inactive) | > 100 µM (inactive) | > 100 µM (inactive) | > 100 µM (inactive) | > 100 µM (inactive) | > 100 µM (inactive) | > 100 µM (inactive) | > 100 µM (inactive) | > 100 µM (inactive) | > 100 µM (inactive)
O=C(OCc1ccccc1)c1ccccc1-c1c2ccc(=O)cc-2oc2cc(OCc3ccccc3)ccc12 | 15.1 µM (inactive) | 25.5 µM (inactive) | 5.22 µM (inactive) | 6.61 µM (inactive) | 18.4 µM (inactive) | 12.7 µM (inactive) | 15.8 µM (inactive) |  |  | 1.95 µM (inactive) | 11.6 µM (inactive) | 10.4 µM (inactive) | 13.5 µM (inactive) | 12.1 µM (inactive) | 14.1 µM (inactive) | 18.7 µM (inactive) |  | 5.32 µM (inactive) | 3.56 µM (inactive)
O=C1C(Cl)=C(Cl)C(=O)N1c1cccc(C(F)(F)F)c1 | > 100 µM (inactive) | > 100 µM (inactive) | > 61.9 µM (inactive) | > 100 µM (inactive) | > 100 µM (inactive) | > 100 µM (inactive) | > 100 µM (inactive) |  |  | 51.4 µM (inactive) | > 100 µM (inactive) | > 100 µM (inactive) | > 100 µM (inactive) | > 100 µM (inactive) | > 100 µM (inactive) | > 100 µM (inactive) | > 100 µM (inactive) | > 100 µM (inactive) | > 100 µM (inactive)
